Laboratory results taken from publication PMC10350924, “Design, Synthesis, and Pharmacological Characterization of a Potent Soluble Epoxide Hydrolase Inhibitor for the Treatment of Acute Pancreatitis” (Journal of Medicinal Chemistry, 2023).

How the values were obtained:
[1] = tested on: cerulein-induced acute pancreatitis; experiment: Cerulein-induced acute pancreatitis in mice; assay type: in vivo; conditions: 10 mg/kg i.p. 0.5 and 2.5 h after first cerulein injection; 6 h
Experimental: Male CD-1 mice (33–39 g, 8 weeks, Charles River Laboratories; Calco, Italy) were fed with standard rodent chow and water and acclimated for 4 days at a 12 h light and 12 h dark schedule in a constant air-conditioned environment (21 ± 2 °C). The mice were randomly assigned to groups, and experiments were carried out during the light phase. Experimental procedures were conducted in conformity with Italian (D.L. 26/2014) and European (directive 2010/63/EU) regulations on the protection of animals used for scientific purposes and approved by the Italian Ministry. Acute pancreatitis (AP) was induced in mice by intraperitoneal (i.p.) injections of cerulein (50 μg/kg) hourly (5 times).[56] The groups were: (a) Sham group which received saline i.p. hourly (×5); […] The mice were killed 6 h after the first cerulein injection. Blood samples were obtained by direct intracardiac puncture. Pancreases and lungs were removed immediately, frozen, and stored at −80 °C until assayed. Portions of these organs were also fixed in formaldehyde for histological and immunohistochemical examination. Pancreas and lung sections (6 μm) were stained for hematoxylin & eosin (H&E). Evaluation of pancreas edema and inflammation signs were performed with a three-point scoring system. […] Analysis was performed in a blinded manner. Evaluation of lung edema and inflammatory infiltration was performed with three-point scoring system: 0, absent; 1, mild; 2, moderate; 3, severe. […] Tissue sections were then incubated with normal goat serum (Vector Laboratories, Newark, California) for 20 min to reduce nonspecific antibody interactions. Sections were incubated with primary antibody diluted in 0.01 M PBS, 2.5% normal serum (anti-Neutrophils rat monoclonal antibody, dilution 1:100, Abcam) for 30 min. After rinsing with PBS 0.01 M for 5 min, slides were incubated with biotinylated goat anti-rat IgG (Vector Laboratories, Newark, California), diluted 1:200, for 30 min. After rinsing with PBS 0.01 M for 5 min, slides were incubated with VECTASTAIN ABC Reagent (Vector Laboratories, Newark, California) for 30 min. Color development was performed using […] 3,3′-diaminobenzidine solution (Sigma-Aldrich, Milan, Italy), and sections were analyzed using Leica Microsystem with a magnification of 20x. Semiquantitative determination of protein expression was obtained with ImageJ/Fiji software. Liver injury was assessed by measuring the rise in plasma levels of alanine aminotransferase (ALT, a specific marker for hepatic parenchymal injury) and aspartate aminotransferase (AST, a nonspecific marker for hepatic injury) 6 h after cerulein injection by a clinical laboratory. Results are expressed in international units per milliliter.

[2] = tested on: sEH; conditions: cited from earlier work

SMILES	pancreatic injury (edema, cell infiltration, neutrophil numbers) [1]	sEH inhibitory potency in words (Figure 1) [2]
O=C(O)CCCCCCCCCCCNC(=O)NC12CC3CC(CC(C3)C1)C2 [AUDA, reference compound]	reduced pancreatic injury	–
O=C(Nc1ccc2c(c1)CCN2Cc1ccc(F)cc1)NC1CCCCC1 [Compound 53]	–	high sEH inhibitory potency
